Assay results taken from ChEMBL document CHEMBL1944561, “Discovery and SAR exploration of a novel series of imidazo[4,5-b]pyrazin-2-ones as potent and selective mTOR kinase inhibitors” (Bioorg Med Chem Lett, 2011).

Assays:
[1] = molecular target: T1, Aurora kinase A (Homo sapiens) (UniProt O14965); experiment: Inhibition of Aurora-A assessed as activity remaining at 10 uM
T1 sequence (whole entry): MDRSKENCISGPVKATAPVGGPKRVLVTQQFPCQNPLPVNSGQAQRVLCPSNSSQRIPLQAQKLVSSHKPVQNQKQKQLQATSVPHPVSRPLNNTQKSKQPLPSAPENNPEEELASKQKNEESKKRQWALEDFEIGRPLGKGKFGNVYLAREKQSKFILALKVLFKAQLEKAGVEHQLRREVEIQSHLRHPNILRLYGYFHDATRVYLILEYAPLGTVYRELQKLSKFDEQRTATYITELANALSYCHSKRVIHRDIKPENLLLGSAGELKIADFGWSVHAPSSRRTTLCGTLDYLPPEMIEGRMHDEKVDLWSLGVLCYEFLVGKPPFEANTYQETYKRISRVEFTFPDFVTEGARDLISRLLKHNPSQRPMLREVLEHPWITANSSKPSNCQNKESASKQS

[2] = molecular target: T2, Cytoplasmic tyrosine-protein kinase BMX (Homo sapiens) (UniProt P51813); experiment: Inhibition of Bmx assessed as activity remaining at 10 uM
T2 sequence (whole entry): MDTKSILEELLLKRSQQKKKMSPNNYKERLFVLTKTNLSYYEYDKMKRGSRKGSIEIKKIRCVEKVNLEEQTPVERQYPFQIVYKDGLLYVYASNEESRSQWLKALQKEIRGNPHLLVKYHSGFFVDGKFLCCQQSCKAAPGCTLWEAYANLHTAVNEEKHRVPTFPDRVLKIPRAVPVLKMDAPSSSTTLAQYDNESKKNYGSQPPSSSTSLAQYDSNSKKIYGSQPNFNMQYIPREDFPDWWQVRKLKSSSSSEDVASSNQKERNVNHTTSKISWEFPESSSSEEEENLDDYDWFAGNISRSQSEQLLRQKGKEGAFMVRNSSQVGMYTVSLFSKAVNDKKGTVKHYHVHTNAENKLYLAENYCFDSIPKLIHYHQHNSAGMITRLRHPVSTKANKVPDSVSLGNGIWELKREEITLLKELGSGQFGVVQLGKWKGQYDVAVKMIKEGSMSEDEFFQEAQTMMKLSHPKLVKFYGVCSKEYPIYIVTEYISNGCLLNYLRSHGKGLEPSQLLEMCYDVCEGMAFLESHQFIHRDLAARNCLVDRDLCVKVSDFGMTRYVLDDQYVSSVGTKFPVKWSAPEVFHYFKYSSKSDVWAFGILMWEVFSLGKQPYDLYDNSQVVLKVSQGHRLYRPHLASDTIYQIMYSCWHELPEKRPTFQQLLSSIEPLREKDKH

[3] = molecular target: Cyclin-dependent kinase 2 (Homo sapiens) (UniProt P24941); experiment: Inhibition of CDK2 assessed as activity remaining at 10 uM
[4] = molecular target: T3, Ephrin type-B receptor 4 (Homo sapiens) (UniProt P54760); experiment: Inhibition of EphB4 assessed as activity remaining at 10 uM
T3 sequence (whole entry): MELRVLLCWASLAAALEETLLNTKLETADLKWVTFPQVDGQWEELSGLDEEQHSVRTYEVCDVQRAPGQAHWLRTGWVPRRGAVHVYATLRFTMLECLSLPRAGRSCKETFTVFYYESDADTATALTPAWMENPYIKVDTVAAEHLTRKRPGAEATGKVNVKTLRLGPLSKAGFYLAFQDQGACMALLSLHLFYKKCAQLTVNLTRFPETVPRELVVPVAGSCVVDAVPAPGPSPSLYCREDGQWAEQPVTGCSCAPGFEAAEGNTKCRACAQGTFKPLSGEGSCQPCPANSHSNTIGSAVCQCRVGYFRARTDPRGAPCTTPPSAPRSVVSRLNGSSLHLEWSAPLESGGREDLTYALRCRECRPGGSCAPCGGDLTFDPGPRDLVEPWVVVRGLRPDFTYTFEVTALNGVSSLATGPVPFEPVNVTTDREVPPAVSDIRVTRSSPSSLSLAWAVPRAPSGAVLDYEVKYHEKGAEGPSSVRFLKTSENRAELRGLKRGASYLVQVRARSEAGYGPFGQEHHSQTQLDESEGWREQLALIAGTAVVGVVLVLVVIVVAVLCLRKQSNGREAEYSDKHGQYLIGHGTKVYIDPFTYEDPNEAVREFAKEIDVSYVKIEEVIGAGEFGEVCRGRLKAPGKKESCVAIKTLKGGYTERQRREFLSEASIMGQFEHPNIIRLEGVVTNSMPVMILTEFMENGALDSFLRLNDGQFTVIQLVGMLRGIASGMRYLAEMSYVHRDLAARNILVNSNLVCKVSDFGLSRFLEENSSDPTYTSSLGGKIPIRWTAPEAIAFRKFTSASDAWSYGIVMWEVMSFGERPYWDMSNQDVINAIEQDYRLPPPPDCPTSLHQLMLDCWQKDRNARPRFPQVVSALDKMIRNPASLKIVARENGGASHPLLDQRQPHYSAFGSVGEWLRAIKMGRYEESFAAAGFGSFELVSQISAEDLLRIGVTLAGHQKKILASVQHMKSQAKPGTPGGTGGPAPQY

[5] = molecular target: Tyrosine-protein kinase Fes/Fps (Homo sapiens) (UniProt P07332); experiment: Inhibition of Fes assessed as activity remaining at 10 uM
Tyrosine-protein kinase Fes/Fps (Homo sapiens), sequence (P07332 whole entry): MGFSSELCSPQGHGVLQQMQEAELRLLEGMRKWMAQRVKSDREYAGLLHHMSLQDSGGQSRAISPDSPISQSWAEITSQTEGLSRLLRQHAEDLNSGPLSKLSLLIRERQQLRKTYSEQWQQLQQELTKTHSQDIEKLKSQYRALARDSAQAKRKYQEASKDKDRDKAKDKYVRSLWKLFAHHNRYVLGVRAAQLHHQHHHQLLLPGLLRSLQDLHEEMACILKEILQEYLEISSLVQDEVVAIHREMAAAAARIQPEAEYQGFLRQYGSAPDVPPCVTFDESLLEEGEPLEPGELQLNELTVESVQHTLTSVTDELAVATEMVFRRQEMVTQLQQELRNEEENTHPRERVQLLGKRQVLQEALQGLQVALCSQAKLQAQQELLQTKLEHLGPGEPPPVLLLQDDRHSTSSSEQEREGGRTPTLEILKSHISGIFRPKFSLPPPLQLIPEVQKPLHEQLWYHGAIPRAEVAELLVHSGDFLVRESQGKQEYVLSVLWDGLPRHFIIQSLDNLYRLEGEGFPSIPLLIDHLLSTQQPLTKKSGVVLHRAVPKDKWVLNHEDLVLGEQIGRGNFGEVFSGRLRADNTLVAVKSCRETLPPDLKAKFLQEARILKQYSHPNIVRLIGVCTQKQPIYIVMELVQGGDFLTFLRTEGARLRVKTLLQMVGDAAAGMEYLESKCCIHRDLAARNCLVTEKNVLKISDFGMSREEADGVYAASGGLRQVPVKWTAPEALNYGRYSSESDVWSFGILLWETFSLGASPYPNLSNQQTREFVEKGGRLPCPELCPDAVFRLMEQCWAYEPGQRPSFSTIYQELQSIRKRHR

[6] = molecular target: Glycogen synthase kinase-3 beta (Homo sapiens) (UniProt P49841); experiment: Inhibition of GSK3-beta assessed as activity remaining at 10 uM
Glycogen synthase kinase-3 beta (Homo sapiens), sequence (P49841 whole entry, looked up): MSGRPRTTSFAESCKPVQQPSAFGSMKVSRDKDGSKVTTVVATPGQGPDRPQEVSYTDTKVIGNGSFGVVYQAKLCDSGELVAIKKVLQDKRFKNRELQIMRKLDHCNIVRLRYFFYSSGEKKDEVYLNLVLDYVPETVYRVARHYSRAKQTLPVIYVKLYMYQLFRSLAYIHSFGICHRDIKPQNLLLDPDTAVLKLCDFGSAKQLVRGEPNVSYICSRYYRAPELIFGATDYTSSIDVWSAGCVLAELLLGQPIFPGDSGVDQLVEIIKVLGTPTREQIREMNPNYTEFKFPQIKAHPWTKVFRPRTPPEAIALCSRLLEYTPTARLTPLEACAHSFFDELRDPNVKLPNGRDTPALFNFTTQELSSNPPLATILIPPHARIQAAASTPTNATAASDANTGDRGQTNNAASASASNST

[7] = molecular target: Homeodomain-interacting protein kinase 1 (Homo sapiens) (UniProt Q86Z02); experiment: Inhibition of HIPK1 assessed as activity remaining at 10 uM
Homeodomain-interacting protein kinase 1 (Homo sapiens), sequence (Q86Z02 whole entry, looked up): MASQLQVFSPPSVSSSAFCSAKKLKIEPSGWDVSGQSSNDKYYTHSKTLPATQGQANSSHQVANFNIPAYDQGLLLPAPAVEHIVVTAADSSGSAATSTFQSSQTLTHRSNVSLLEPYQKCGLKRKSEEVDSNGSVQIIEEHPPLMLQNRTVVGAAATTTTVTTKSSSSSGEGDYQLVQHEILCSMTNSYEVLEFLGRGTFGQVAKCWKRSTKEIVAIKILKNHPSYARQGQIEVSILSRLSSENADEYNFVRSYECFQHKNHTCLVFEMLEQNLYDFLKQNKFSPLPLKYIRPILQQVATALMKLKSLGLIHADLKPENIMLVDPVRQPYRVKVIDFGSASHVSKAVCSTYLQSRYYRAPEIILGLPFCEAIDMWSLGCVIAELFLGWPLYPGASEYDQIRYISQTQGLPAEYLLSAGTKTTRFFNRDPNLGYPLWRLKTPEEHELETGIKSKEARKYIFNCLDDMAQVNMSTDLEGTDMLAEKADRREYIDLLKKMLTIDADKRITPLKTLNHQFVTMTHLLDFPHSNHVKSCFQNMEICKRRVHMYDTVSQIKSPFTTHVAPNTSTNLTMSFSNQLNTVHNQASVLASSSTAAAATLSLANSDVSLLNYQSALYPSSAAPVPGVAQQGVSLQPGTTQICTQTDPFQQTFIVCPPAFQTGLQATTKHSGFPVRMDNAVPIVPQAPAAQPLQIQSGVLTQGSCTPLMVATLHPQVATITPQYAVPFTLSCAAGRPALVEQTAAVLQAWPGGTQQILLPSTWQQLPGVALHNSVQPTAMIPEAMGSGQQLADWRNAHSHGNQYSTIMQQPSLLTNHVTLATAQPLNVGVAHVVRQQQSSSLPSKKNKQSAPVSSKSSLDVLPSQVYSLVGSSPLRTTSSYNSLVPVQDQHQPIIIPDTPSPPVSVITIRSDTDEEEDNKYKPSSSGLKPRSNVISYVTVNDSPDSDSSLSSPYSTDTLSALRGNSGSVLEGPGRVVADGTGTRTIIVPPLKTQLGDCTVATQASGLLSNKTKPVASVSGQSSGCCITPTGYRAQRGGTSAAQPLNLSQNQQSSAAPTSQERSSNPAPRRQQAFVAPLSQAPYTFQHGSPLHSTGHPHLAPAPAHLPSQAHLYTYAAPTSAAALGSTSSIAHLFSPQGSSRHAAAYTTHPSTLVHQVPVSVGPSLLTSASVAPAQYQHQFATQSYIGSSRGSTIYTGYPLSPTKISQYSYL

[8] = molecular target: Insulin receptor-related protein (Homo sapiens) (UniProt P14616); experiment: Inhibition of IRR assessed as activity remaining at 10 uM
Insulin receptor-related protein (Homo sapiens), sequence (P14616 27-742 limits assumed): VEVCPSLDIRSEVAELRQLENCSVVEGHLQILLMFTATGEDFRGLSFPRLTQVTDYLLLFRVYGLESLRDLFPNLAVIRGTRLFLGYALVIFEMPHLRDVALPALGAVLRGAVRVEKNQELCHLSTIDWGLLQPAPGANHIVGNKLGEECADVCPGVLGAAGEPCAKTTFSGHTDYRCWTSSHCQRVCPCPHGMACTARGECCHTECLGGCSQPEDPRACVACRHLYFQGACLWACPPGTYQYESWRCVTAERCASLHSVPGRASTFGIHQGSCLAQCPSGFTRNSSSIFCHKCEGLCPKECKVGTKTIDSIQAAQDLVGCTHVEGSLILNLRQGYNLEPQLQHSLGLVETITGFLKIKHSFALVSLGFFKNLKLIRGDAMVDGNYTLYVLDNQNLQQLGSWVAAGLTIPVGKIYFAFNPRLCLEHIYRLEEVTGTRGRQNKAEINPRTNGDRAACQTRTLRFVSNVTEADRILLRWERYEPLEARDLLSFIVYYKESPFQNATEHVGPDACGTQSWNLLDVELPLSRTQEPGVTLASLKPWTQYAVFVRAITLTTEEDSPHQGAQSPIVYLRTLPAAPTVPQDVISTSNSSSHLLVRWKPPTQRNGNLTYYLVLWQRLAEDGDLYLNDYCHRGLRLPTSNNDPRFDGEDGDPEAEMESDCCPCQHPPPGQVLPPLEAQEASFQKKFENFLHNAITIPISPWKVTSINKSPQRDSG
Insulin receptor-related protein (Homo sapiens), sequence (P14616 747-1297 limits assumed): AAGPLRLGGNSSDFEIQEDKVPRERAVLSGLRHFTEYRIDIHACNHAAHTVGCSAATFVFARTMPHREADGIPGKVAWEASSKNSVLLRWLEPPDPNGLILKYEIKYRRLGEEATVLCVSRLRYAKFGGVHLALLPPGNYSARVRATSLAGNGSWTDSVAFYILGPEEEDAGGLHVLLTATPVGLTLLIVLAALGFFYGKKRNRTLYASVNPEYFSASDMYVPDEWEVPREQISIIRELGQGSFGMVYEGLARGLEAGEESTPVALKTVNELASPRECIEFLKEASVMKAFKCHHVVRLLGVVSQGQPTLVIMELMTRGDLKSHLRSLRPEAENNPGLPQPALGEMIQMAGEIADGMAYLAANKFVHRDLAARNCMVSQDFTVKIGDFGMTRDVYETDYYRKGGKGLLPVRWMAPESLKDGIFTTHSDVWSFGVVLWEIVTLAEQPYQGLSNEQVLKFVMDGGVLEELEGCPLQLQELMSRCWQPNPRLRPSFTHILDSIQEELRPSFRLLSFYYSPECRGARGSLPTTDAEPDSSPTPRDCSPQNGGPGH

[9] = molecular target: Tyrosine-protein kinase Yes (Homo sapiens) (UniProt P07947); experiment: Inhibition of Yes assessed as activity remaining at 10 uM
Tyrosine-protein kinase Yes (Homo sapiens), sequence (P07947 2-543 limits assumed): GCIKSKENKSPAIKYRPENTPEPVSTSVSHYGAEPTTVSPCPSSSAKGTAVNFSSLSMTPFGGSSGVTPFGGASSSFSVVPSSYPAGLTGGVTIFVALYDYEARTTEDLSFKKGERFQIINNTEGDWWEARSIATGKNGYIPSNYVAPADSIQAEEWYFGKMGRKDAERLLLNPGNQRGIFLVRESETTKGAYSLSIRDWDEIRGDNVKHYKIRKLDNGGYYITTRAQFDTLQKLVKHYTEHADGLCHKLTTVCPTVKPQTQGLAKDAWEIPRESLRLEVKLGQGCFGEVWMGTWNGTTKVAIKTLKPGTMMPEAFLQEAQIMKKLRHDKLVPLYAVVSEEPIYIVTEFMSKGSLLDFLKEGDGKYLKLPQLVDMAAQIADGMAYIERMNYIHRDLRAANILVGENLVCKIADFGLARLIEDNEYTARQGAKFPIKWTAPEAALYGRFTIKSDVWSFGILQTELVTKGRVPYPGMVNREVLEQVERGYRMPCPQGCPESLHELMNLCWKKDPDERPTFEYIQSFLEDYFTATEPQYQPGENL

PC-3 = experiment: Antiproliferative activity against human PC3 cells

Activity [1] | Activity [2] | Activity [3] | Activity [4] | Activity [5] | Activity [6] | Activity [7] | Activity [8] | Activity [9] | IC50 (PC-3) | Structure (SMILES)
32% | 92% | 81% | 96% | 88% | 10% | 84% | 92% | 73% | 1160 nM | O=c1[nH]c2ncc(-c3ccc4[nH]cnc4c3)nc2n1CC1CCCCC1
79% | 93% | 90% | 97% | 89% | 70% | 91% | 90% | 87% | 1370 nM | O=c1[nH]c2ncc(-c3ccc(-c4nc[nH]n4)cc3)nc2n1CC1CCOCC1
58% | 85% | 81% | 90% | 81% | 31% | 94% | 89% | 74% | 1380 nM | CC(C)(O)c1ccc(-c2cnc3[nH]c(=O)n(CC4CCCCC4)c3n2)cc1
